In patent EP4786485A1, “STRAIGHT CHAIN PEPTIDE COMPOUND AND USE THEREOF” (Shenzhen Zhongge Biological Technology Co., Ltd., priority 2023, dated 2026):
Where a SMILES comes first, the peptide text is derived from it. [ ]: non-standard residue; d: D form. The star is where a group is joined. Biotin = O=C1N[C@H]2[C@H](CS[C@H]2CCCCC(=O)*)N1; Lys(Me3) = C[N+](C)(C)CCCC[C@H](N)C(=O)O; Phe(4-Me) = Cc1ccc(C[C@H](N)C(=O)O)cc1; Palmitoyl = CCCCCCCCCCCCCCCC(=O)*; Ahp = NCCCCCCC(=O)O; βAla = NCCC(=O)O

Experiments:
Format in all cases: cell-based, Human
[1] = tested on: Collagen I (type I collagen); test: ELISA: effect of increasing the content of Collagen I in fibroblasts; parameters: Effect of increasing the content of Collagen I in the fibroblasts: unit not given here; settings: 1 µM, 24 h; for Effect of increasing the content of Collagen I in the fibroblasts: human-derived fibroblasts, ELISA, blank control BC = 35.6; for increase in the content of type I collagen (Collagen I): in words, compared to the BC, fibroblasts
Description: (§1) B. Effects of increasing the contents of Collagen I (type I collagen), hyaluronic acid (HA), and Elastin (ELN) in fibroblasts
(§2) Test materials: Human-derived fibroblasts (Guangdong BioCell Biotechnology Co., Ltd., Lot No. Fb20081902), DMEM culture medium (Gibco, 23042301, expiration date 230522), PBS (Solarbio, P1010), TGF-β1 (Peprotech, 230504), Collagen I ELISA Kit (Cusabio, B21025824), Elastin ELISA Kit (Abcam, GR3446070-2), HA ELISA Kit (RD, P325066), CO2 incubator (Thermo, 150I), super-clean bench (AIRTECH, SW-CJ-1F), and microplate reader (BioTek, Epoch).
(§3) Test methods: • 1) Inoculation: After cell resuscitation, the cells were inoculated into 6-well plates when the plating rate reached around 60%, and were incubated overnight in an incubator (37°C, 5% CO2). • 2) Formulation of solutions: The linear peptide compounds in the sample groups, and PC2 (Biotinoyl-GHK, [drawing 69] ) and PC3 ( [drawing 70] ) in the positive control group were all at the concentration of 1 µM, and the test substance working solutions were formulated. • 3) Administration: When the cell plating rate in the 6-well plates reached 40% to 60%, administration was performed at 2 mL per well. Three duplicate wells were set for each group. Incubation was performed in an incubator (37°C, 5% CO2) for 24 h. • 4) ELISA assay: The ELISA assays were performed according to the instructions of the respective ELISA kits, with the detection indicators being effect of increasing the content of Collagen I in the fibroblasts, effect of increasing the content of HA in the fibroblasts, and effect of increasing the content of Elastin in the fibroblasts, respectively.

Elastin (ELN) = test: ELISA: effect of increasing the content of Elastin in fibroblasts; parameters: Effect of increasing the content of Elastin in the fibroblasts: unit not given here; settings: 1 µM; for Effect of increasing the content of Elastin in the fibroblasts: 24 h incubation, ELISA, blank control (BC) 756.52; for increase in the content of Elastin: in words, compared to the BC, 24 h, fibroblasts
Description: as §1, §2, §3

hyaluronic acid (HA) = test: ELISA: effect of increasing the content of HA in fibroblasts; parameters: Effect of increasing the content of HA in the fibroblasts: unit not given here; settings: 1 µM, 24 h; for Effect of increasing the content of HA in the fibroblasts: human-derived fibroblasts, ELISA, blank control BC = 1402.44; for increase in the content of hyaluronic acid (HA): in words, compared to the BC, fibroblasts
Description: as §1, §2, §3

SMILES	Effect of increasing the content of Collagen I in the fibroblasts [1]	increase in the content of type I collagen (Collagen I) [1]	Effect of increasing the content of Elastin in the fibroblasts (Elastin (ELN))	increase in the content of Elastin (Elastin (ELN))	Effect of increasing the content of HA in the fibroblasts (hyaluronic acid (HA))	increase in the content of hyaluronic acid (HA) (hyaluronic acid (HA))
CNC(=O)CNC(=O)[C@H](Cc1c[nH]cn1)NC(=O)[C@H](CCCCN)NC(=O)CCNC(=O)CCNC(C)=O [compound 76] (Ac-[βAla][βAla]KHG-NHMe)	47.05	significant increase	1061.55	significant increase	2607.31	significant increase
CNC(=O)CNC(=O)[C@H](Cc1c[nH]cn1)NC(=O)[C@H](CCCCN)NC(=O)CCCCCCNC(C)=O [compound 77] (Ac-[Ahp]KHG-NHMe)	89.94	significant increase	1093.49	significant increase	3493	significant increase
CCCCCCCCCCCCCCCC(=O)N[C@@H](CCCC[N+](C)(C)C)C(=O)N[C@@H](C)C(=O)N[C@@H](C)C(=O)N[C@@H](C)C(=O)NCC(=O)N[C@@H](Cc1c[nH]cn1)C(=O)N[C@@H](CCCCN)C(=O)O [compound 234] (Palmitoyl-[Lys(Me3)]AAAGHK-OH)	49.53	significant increase	900.83	significant increase	2356.91	significant increase
CNC(=O)CNC(=O)[C@H](Cc1c[nH]cn1)NC(=O)[C@H](CCCCN)NC(=O)[C@@H]1CCCN1C(=O)[C@@H]1CCCN1C(=O)[C@@H]1CCCN1C(C)=O [compound 286] (Ac-PPPKHG-NHMe)	53.24	significant increase	1096.59	significant increase	2791.21	significant increase
CCCCCCCCCCCCCCCC(=O)N1CCC[C@H]1C(=O)N1CCC[C@H]1C(=O)N1CCC[C@H]1C(=O)NCC(=O)N[C@@H](Cc1c[nH]cn1)C(=O)N[C@@H](CCCCN)C(=O)O [compound 294] (Palmitoyl-PPPGHK-OH)	91.47	significant increase	1037.26	significant increase	1761.46	significant increase
NCCCC[C@H](NC(=O)[C@H](Cc1c[nH]cn1)NC(=O)CNC(=O)[C@@H]1CCCN1C(=O)[C@@H]1CCCN1C(=O)[C@@H]1CCCN1C(=O)CCCC[C@@H]1SC[C@@H]2NC(=O)N[C@@H]21)C(N)=O [compound 296] (Biotin-PPPGHK-NH2)	88.1	significant increase	930.98	significant increase	1686.42	significant increase
CNC(=O)[C@H](Cc1ccc(C)cc1)NC(=O)[C@H](C)NC(=O)[C@H](CCCCN)NC(=O)[C@H](Cc1c[nH]cn1)NC(=O)CNC(=O)[C@H](CCCC[N+](C)(C)C)NC(C)=O [compound 337] (Ac-[Lys(Me3)]GHKA[Phe(4-Me)]-NHMe)	95.66	significant increase	1320.95	significant increase	2421.21	significant increase
